Tests used:
[1] = tested on: engineered strains of Escherichia coli harboring select single β-lactamases; test: MIC across the panel of engineered E. coli strains harboring select single β-lactamases; format: cell-based; details: strains expressing β-lactamases compared with control strain, result in words
Experimental: To determine if test compounds were affected by various known β-lactamases, the inhibition of the growth of engineered strains of Escherichia coli harboring select single β-lactamases were tested. These strains were constructed by cloning the gene encoding the particular β-lactamase into the NdeI and BamHI restriction endonuclease sites of plasmid pLBII, placing the gene(s) under the control of the Lac promoter.

[2] = tested on: E. coli DH5a harboring CTX-M15; test: Broth microdilution MIC, engineered E. coli expressing CTX-M15; format: cell-based; details: Escherichia coli, read-out: MIC, β-lactamase CTXM
Experimental: (§1) To determine the ability of test compounds to potentiate the inhibition of the growth of bacterial strains, classic cell based broth microdilution MIC assays were employed. MIC assays are performed according to CLSI methods except where otherwise noted (CLSI, 2011 and CLSI, 2009). The reference strain S. aureus ATCC 29213 and the hyper-permeable E. coli 901C were used to determine the ability of the PBP compounds to inhibit bacterial growth. Briefly, cryo-preserved bacterial cultures of clinical strains are streaked for isolation on appropriate agar medium, in this case Mueller Hinton II agar. Following incubation to allow formation of colonies these plates are sealed with parafilm and stored refrigerated for up to two weeks. For preparation of assay inocula and to ensure low variability, at least 5 colonies are picked from the agar plates with an inoculating loop and aseptically transferred to a culture tube containing 3 mL of Mueller-Hinton Broth (supplemented with divalent cations to required levels based on Manufacturers' certification). The broth culture is grown for 3-5 hours at 37° C. with shaking at 200 rpm. Meanwhile, 2-fold serial dilutions of test compounds are conducted in a 96 well plate with a final volume of 75 μL per well at 2-fold the final desired concentration. After the dilution plates are set up the growing cultures are then diluted in a cuvette containing MH II broth and the optical density is measured at 600 nm. Inocula are diluted such that 75 μL of this culture in Mueller-Hinton Broth results in a starting bacterial concentration of 5×10^5 CFU/mL when added to the dilution plates. The plates are incubated 16-20 hours at 37° C. The MIC is read visually as the lowest concentration well with no bacterial growth.
(§2) To determine if test compounds were affected by various known β-lactamases, the inhibition of the growth of engineered strains of Escherichia coli harboring select single β-lactamases were tested. […]

[3] = tested on: E. coli DH5a harboring SHV-5; test: Broth microdilution MIC, engineered E. coli expressing SHV-5; format: cell-based; details: Escherichia coli, read-out: MIC, β-lactamase SHV
Experimental: as §1, §2

[4] = tested on: E. coli DH5a harboring VIM-2; test: Broth microdilution MIC, engineered E. coli expressing VIM-2; format: cell-based; details: Escherichia coli, read-out: MIC, β-lactamase VIM
Experimental: as §1, §2

[5] = tested on: E. coli DH5a harboring NDM-1; test: Broth microdilution MIC, engineered E. coli expressing NDM-1; format: cell-based; details: Escherichia coli, read-out: MIC, β-lactamase NDM
Experimental: as §1, §2

[6] = tested on: E. coli DH5a harboring IMP-18; test: Broth microdilution MIC, engineered E. coli expressing IMP-18; format: cell-based; details: Escherichia coli, read-out: MIC, β-lactamase IMP
Experimental: as §1, §2

[7] = tested on: E. coli DH5a with pLBII plasmid with no β-lactamase gene; test: Broth microdilution MIC, engineered E. coli control strain (pLBII plasmid, no β-lactamase gene); format: cell-based; details: Escherichia coli, read-out: MIC, β-lactamase None
Experimental: as §1, §2

[8] = tested on: E. coli DH5a harboring OXA-48; test: Broth microdilution MIC, engineered E. coli expressing OXA-48; format: cell-based; details: Escherichia coli, read-out: MIC, β-lactamase OXA
Experimental: as §1, §2

[9] = tested on: E. coli DH5a harboring TEM-24; test: Broth microdilution MIC, engineered E. coli expressing TEM-24; format: cell-based; details: Escherichia coli, read-out: MIC, β-lactamase TEM
Experimental: as §1, §2

[10] = tested on: hyper-permeable E. coli 901C; test: Broth microdilution MIC assay, hyper-permeable E. coli; format: cell-based; details: Escherichia coli, read-out: E. coli 901C MIC
Method in brief: (§3)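 Colonies from Mueller Hinton II agar grown 3-5 h at 37° C in cation-adjusted MH broth; OD600-adjusted inoculum, 5×10^5 CFU/mL final, added to 2-fold compound series. 16-20 h, 37° C. Visual MIC, no-growth endpoint.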

E. coli K12 PBP1a/b = test: Bocillin FL competition binding assay, PBP1a/1b combined; set-up: species or system Escherichia coli K12; details: 15 min pre-incubation, PBP 1a/1b combined
Method in brief: (§4)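 E. coli K12 membrane extracts (100 µg protein) pre-incubated 15 min with compound (0.005–2,480 µg/mL) in pH 7 phosphate/350 mM NaCl, then labelled with Bocillin FL 30 min at 35°C; SDS-PAGE fluorescence (ex 450/em 520 nm), μg/mL reported. PBP1a/1b unresolved, reported combined.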

E. coli PBP2 = target: T1, E. coli PBP2 (Escherichia coli, UniProt P0AD65); test: Bocillin FL competition binding assay, PBP2; set-up: species or system Escherichia coli K12; details: 15 min pre-incubation
T1 construct: 100 μg's of total membrane protein extracts containing PBPs; endogenous in cells; host or cells: Escherichia coli K12, membrane protein fraction
Method in brief: as §4

[11] = tested on: E. coli DH5a harboring KPC-2; test: microbe, parasite or virus in culture; format: cell-based; details: Escherichia coli, read-out: MIC, β-lactamase KPC
Experimental: To determine the ability of test compounds to potentiate the inhibition of the growth of bacterial strains, classic cell based broth microdilution MIC assays were employed. MIC assays are performed according to CLSI methods except where otherwise noted (CLSI, 2011 and CLSI, 2009). The reference strain S. aureus ATCC 29213 and the hyper-permeable E. coli 901C were used to determine the ability of the PBP compounds to inhibit bacterial growth. Briefly, cryo-preserved bacterial cultures of clinical strains are streaked for isolation on appropriate agar medium, in this case Mueller Hinton II agar. Following incubation to allow formation of colonies these plates are sealed with parafilm and stored refrigerated for up to two weeks. For preparation of assay inocula and to ensure low variability, at least 5 colonies are picked from the agar plates with an inoculating loop and aseptically transferred to a culture tube containing 3 mL of Mueller-Hinton Broth (supplemented with divalent cations to required levels based on Manufacturers' certification). The broth culture is grown for 3-5 hours at 37° C. with shaking at 200 rpm. […] After the dilution plates are set up the growing cultures are then diluted in a cuvette containing MH II broth and the optical density is measured at 600 nm. […] The MIC is read visually as the lowest concentration well with no bacterial growth. […]

S. aureus ATCC 29213 = test: Broth microdilution MIC assay, S. aureus; format: cell-based; details: Staphylococcus aureus, ATCC29213; broth microdilution, 16-20 hours at 37° C.; read-out: S. aureus 29213 MIC
Method in brief: as §3

E. coli PBP3 = target: T2, E. coli PBP3 (Escherichia coli, UniProt P0AD68); test: Bocillin FL competition binding assay, PBP3; set-up: species or system Escherichia coli K12; details: 15 min pre-incubation
T2 construct: 100 μg's of total membrane protein extracts containing PBPs; endogenous in cells; host or cells: Escherichia coli K12, membrane protein fraction
Method in brief: as §4

E. coli K12 PBP1b = target: T3, E. coli K12 PBP1b (Escherichia coli, UniProt P02919); test: Competition binding assay using Bodipy-FL boronic acid probe (Example 125); details: Bodipy-FL boronic acid probe (Example 125) 30 μM, 10 minutes pre-incubation, 10 minutes reaction
T3 construct: endogenous in cells; host or cells: Escherichia coli K12, membrane protein fraction
Experimental: Penicillin binding proteins were isolated from Escherichia coli K12 by growth of Escherichia coli K12 from a single colony in 4 L of Luria-Bertani (LB) broth at 35° C. and 250 rpm to an OD600 nm of 0.5. The cells were harvested by centrifugation at 7,000×g for 10 min. at 4° C. Cells were resuspended and washed in 50 mM potassium phosphate pH 7.5. The cells were re-suspended in sonication buffer [50 mM Tris-HCl pH 7.5, 1 mM MgCl2, 1 mM beta-mercaptoethanol, and 5 μg/mL DNAse I] and sonicated by 4 passes of 30 seconds at 45 W on ice. The sample was clarified by centrifugation at 3,000×g to remove cell debris and unbroken cells and supernatant containing the membrane proteins was retained. The membrane proteins including the PBPs were further purified from soluble constituents by an ultracentrifugation step at 100,000×g for 30 min. at 4° C. The membrane proteins are washed twice with 10 mM sodium phosphate pH 7, resuspended in a volume of 5 mL, quantitated by BCA assay, adjusted to […] and frozen at −80° C. until use.
The adapted Bocillin FL competition binding method described herein incorporates a 15 min. pre-incubation of test compound with isolated PBPs to attempt to balance the difference in mechanism of inhibition between beta-lactams (largely irreversible covalent bond to active site Serine) and the boron-containing PBP inhibitor test compounds (reversible covalent bond to active site Serine). Briefly, 50 μL reactions consisted of 100 μg's of total membrane protein extracts containing PBPs incubated with a dilution series of test compound ranging from 0.005 μg/mL to 2,480 μg/mL in 10 mM sodium phosphate pH7 containing 350 mM NaCl. Thirty minute reactions at 35° C. were initiated by addition of […] Bocillin FL, quenched by addition of SDS-PAGE loading buffer containing sodium dodecyl sulfate (SDS) and heated for 15 minutes at 95° C. to denature proteins in preparation for SDS-polyacrylamide gel electrophoresis. The Bocillin FL labeled PBPs are then separated by SDS-PAGE in Novex NuPage 10% Bis-Tris pre-cast gels (Invitrogen). The SDS-PAGE gel, post-electrophoresis, is then washed in water to remove excess SDS for 10 minutes at room temperature and placed on the scanning bed of a GE Healthcare/Amersham Biosciences Storm 860 fluorescence scanner. The excitation wavelength is in the blue spectrum at 450 nm and the emission at 520 nm is captured by the instrument. Effective PBP inhibitors are detected by a reduction in Bocillin FL labeling of the particular PBP over the dose range of test compound in a dose-responsive manner. High molecular weight PBP 1a/1b are not resolved by these gels, thus we report HMW PBP binding results in μg/mL for PBPs 1a/1b combined as well as for PBP2 and PBP3.
To determine the ability of boronic acid-based test PBP inhibitors to bind Penicillin Binding Proteins (PBPs), a competition binding assay using a Bodipy-FL-labeled boronic acid PBP inhibitor (Example 125) was adapted from the classical method used to assess PBP potency of beta-lactams using Bocillin-FL (fluorescently-labeled penicillin V). The method is identical to that described in Example I for the Bocillin-FL competition binding assay with the following exceptions, the Bodipy-FL boronic acid probe (Example 125) is used at a final concentration of 30 μM, pre-incubation time of test compound with PBP enzymes is 10 minutes and reaction time is set for 10 minutes and reactions are prepared for SDS-PAGE analysis by simply adding SDS-containing loading buffer. Representative results are shown in Table 5, where A represents a potency of >1000 μg/mL, B represents a potency between 64 and 1000 μg/mL inclusive, and C represents a potency of <64 μg/mL. NT=Not Tested.

T1 sequence (P0AD65 whole entry): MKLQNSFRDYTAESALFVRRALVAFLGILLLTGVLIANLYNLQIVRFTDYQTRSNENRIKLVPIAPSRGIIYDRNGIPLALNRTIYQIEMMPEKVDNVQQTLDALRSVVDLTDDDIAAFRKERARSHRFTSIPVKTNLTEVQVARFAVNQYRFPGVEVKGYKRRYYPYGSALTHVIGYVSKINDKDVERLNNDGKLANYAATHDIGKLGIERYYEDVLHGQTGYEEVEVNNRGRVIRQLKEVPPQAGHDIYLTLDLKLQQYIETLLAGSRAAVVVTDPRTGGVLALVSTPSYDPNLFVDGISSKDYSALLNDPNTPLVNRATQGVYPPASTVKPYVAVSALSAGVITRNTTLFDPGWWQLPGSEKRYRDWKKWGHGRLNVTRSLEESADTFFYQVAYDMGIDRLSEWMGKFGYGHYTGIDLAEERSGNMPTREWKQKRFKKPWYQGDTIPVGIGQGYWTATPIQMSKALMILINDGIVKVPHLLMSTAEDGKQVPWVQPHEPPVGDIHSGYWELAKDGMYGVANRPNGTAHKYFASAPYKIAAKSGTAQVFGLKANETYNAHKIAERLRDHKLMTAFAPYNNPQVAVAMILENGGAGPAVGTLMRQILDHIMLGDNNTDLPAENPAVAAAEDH
T2 sequence (P0AD68 1-577): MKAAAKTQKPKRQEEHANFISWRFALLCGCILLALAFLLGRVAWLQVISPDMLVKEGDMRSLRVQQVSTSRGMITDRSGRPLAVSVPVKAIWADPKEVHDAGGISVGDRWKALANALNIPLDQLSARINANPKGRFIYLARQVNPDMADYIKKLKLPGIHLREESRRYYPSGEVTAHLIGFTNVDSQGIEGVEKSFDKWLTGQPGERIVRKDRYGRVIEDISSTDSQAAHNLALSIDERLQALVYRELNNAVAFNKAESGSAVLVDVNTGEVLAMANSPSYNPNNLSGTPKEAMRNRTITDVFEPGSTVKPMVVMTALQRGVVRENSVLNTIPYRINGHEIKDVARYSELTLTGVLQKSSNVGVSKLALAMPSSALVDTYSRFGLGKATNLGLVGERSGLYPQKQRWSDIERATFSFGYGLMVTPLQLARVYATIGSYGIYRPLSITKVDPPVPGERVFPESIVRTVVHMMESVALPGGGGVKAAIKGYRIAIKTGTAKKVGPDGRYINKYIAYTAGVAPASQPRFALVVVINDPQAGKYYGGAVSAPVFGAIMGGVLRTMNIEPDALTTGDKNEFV
T3 sequence (P02919 whole entry): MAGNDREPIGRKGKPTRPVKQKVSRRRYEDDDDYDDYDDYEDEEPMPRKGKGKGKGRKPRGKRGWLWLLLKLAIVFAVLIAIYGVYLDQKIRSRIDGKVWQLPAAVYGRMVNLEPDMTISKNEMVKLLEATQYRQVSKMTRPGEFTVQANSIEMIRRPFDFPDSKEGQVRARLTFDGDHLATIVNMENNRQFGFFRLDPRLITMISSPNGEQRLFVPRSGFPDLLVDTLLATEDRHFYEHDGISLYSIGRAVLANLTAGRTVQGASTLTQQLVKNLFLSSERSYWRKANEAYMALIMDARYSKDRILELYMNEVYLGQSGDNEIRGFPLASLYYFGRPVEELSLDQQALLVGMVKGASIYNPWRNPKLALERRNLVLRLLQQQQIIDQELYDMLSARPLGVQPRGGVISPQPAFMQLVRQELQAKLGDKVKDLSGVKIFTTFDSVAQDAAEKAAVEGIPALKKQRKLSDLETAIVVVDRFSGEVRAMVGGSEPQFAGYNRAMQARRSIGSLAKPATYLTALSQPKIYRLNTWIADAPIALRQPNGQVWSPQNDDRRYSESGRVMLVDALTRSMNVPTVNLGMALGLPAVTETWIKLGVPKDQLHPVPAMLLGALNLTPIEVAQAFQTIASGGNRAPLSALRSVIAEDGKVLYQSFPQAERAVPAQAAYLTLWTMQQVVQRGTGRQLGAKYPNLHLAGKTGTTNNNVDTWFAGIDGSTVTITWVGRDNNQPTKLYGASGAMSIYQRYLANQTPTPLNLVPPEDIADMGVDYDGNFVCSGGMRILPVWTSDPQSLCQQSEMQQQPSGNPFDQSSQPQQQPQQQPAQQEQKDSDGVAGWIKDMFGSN

Structure (SMILES)	Effect of expressed β-lactamase on MIC [1]	MIC [2]	MIC [3]	MIC [4]	MIC [5]	MIC [6]	MIC [7]	MIC [8]	MIC [9]	MIC [10]	E. coli K12 PBP1a/b Potency (E. coli K12 PBP1a/b)	E. coli PBP2 Potency (E. coli PBP2)	MIC [11]	MIC (S. aureus ATCC 29213)	E. coli PBP3 Potency (E. coli PBP3)	E. coli K12 PBP1b Potency (E. coli K12 PBP1b)
C[C@H]1[C@H](NC(=O)/C(=N\OC(C)(C)C(=O)O)c2csc(N)n2)C(=O)N1S(=O)(=O)O [Aztreonam, reference compound]	weaker MICs in those strains	32 µg/mL	8 µg/mL	0.06 µg/mL	0.06 µg/mL	0.06 µg/mL	0.06 µg/mL	0.125 µg/mL	1 µg/mL							
CO/N=C(\C(=O)N[C@H]1Cc2cccc(C(=O)O)c2OB1O)c1csc(N)n1 [Example 1, (R,Z)-3-(2-(2-aminothiazol-4-yl)-2-(methoxyimino)acetamido)-2-hydroxy-3,4-dihydro-2H-benzo[e][1,2]oxaborinine-8-carboxylic Acid]	the same MIC values in strains regardless of the β-lactamase expressed	8 µg/mL	8 µg/mL	8 µg/mL	8 µg/mL	8 µg/mL	8 µg/mL	8 µg/mL	8 µg/mL	< 64 µg/mL	C (C represents a potency of <64 μg/mL)	A (A represents a potency of >1000 μg/mL)	4 µg/mL	64 to 128 µg/mL	C (C represents a potency of <64 μg/mL)	
Nc1nc(/C(=N/OCC(=O)NC2CCNCC2)C(=O)N[C@H]2Cc3cccc(C(=O)O)c3OB2O)cs1 [Example 59, (R,Z)-3-(2-(2-aminothiazol-4-yl)-2-((2-oxo-2-(piperidin-4-ylamino)ethoxy)imino)acetamido)-2-hydroxy-3,4-dihydro-2H-benzo[e][1,2]oxaborinine-8-carboxylic Acid]										< 64 µg/mL	B (B represents a potency between 64 and 1000 μg/mL inclusive)	C (C represents a potency of <64 μg/mL)		> 128 µg/mL	C (C represents a potency of <64 μg/mL)	B (B represents a potency between 64 and 1000 μg/mL inclusive)
NC(=O)CO/N=C(\C(=O)N[C@H]1Cc2cccc(C(=O)O)c2OB1O)c1csc(N)n1 [Example 61, (R,Z)-3-(2-((2-amino-2-oxoethoxy)imino)-2-(2-aminothiazol-4-yl)acetamido)-2-hydroxy-3,4-dihydro-2H-benzo[e][1,2]oxaborinine-8-carboxylic Acid]										< 64 µg/mL	C (C represents a potency of <64 μg/mL)	B (B represents a potency between 64 and 1000 μg/mL inclusive)		64 to 128 µg/mL	C (C represents a potency of <64 μg/mL)	C (C represents a potency of <64 μg/mL)
CC(C)(O/N=C(\C(=O)N[C@H]1Cc2cccc(C(=O)O)c2OB1O)c1csc(N)n1)C(=O)O [Example 68, (R,Z)-3-(2-(2-aminothiazol-4-yl)-2-(((2-carboxypropan-2-yl)oxy)imino)acetamido)-2-hydroxy-3,4-dihydro-2H-benzo[e][1,2]oxaborinine-8-carboxylic Acid]										< 64 µg/mL	C (C represents a potency of <64 μg/mL)	C (C represents a potency of <64 μg/mL)		> 128 µg/mL	C (C represents a potency of <64 μg/mL)	C (C represents a potency of <64 μg/mL)

From US11267826B2, “Penicillin-binding protein inhibitors” (priority 2017, dated 2022)
